In general, IC50 refers to the concentration that inhibits the measured activity by half. Higher therefore signals weaker potency in that assay. The inhibition is how much of the control response was suppressed. Low readings indicate little suppression, high ones strong suppression.

Activity calls are given as the source filed them. The rule behind the calls is not given here.

Drawing on ChEMBL document CHEMBL1208777, “Synthesis of novel oxime-containing pyrazole derivatives and discovery of regulators for apoptosis and autophagy in A549 lung cancer cells” (Bioorg Med Chem Lett, 2010), this text covers Activity, IC50 and inhibition for nine compounds.

Test [1] relates to A549. In words: Cytotoxicity against human A549 cells at 10 to 40 uM by SRB assay. It counts as functional, cell-based. To be noted: TDE = time-dependent effect. A general note: Sulforhodamine B stains cellular protein and so reports cell mass.
The subject of test [2] is A549. As to the kind of experiment: Anticancer activity against human A549 cells assessed as occurrence of autophagy at 10 to 40 uM after 48 hrs by acridine orange staining-based fluorescence microscopy. It counts as functional, cell-based.
Test [3] concerns A549. As to the kind of experiment: Induction of necrosis in human A549 cells assessed as LDH release at 40 uM after 48 hrs. In kind it is functional, cell-based. Background: LDH in the medium is a marker of cell lysis.
In test [4] the test system is A549. As to the kind of experiment: Anticancer activity against human A549 cells assessed as increase in autophagosome level at 40 uM after 24 hrs by Western blot analysis. It counts as functional, cell-based. (A western blot detects proteins with antibodies after separation by electrophoresis.)
Test [5] deals with A549. In words: Cytotoxicity against human A549 cells after 48 hrs by SRB assay. It counts as functional, cell-based. As to conditions: for IC50: A549, 48 h.
For test [6], the system named is A549. In words: Induction of apoptosis in human A549 cells assessed as occurrence of nuclear granulation at 10 to 40 uM after 48 hrs by Hoechst 33258 staining-based fluorescence microscopy. In kind it is functional, cell-based.
Test [7] has as its system A549. In words: Cytotoxicity against human A549 cells at 10 uM after 48 hrs by SRB assay. To be noted: A549, 48 h. It counts as functional.
Test [8] concerns A549. As to the kind of experiment: Cytotoxicity against human A549 cells at 20 uM after 48 hrs by SRB assay. As to conditions: A549, 48 h. It counts as functional.
The test system of test [9] is A549. As to the kind of experiment: Cytotoxicity against human A549 cells at 40 uM after 48 hrs by SRB assay. In kind it is functional. As to conditions: A549, 48 h.
Test [10] concerns A549. In words: Anticancer activity against human A549 cells assessed as increase in autophagosome level at 20 uM after 24 hrs by Western blot analysis. It counts as functional, cell-based.

In the case of `CCOC(=O)c1cc(-c2ccc(Cl)cc2)nn1C/C(=N/O)c1ccc(OC)cc1`, the Activity result is “tde” with A549 [1] and “Dose-dependent effect” in the test with A549 [5]. Moreover, the outcome in the test on A549 [2] and in the test with A549 [4] was Active. In addition, the result in the test on A549 [3] was inactive. This compound registered an IC50 in the test on A549 [5] of 17.8 µM.

Turning to `CCOC(=O)c1cc(-c2ccccc2)nn1C/C(=N/O)c1ccc(OC)cc1`, the Activity entry was “tde” in the test on A549 [1] and “Dose-dependent effect” in the test on A549 [5]. Also, the result in the test on A549 [3] and in the test with A549 [4] was inactive. In the test with A549 [5], this compound returned a half-maximal inhibitory concentration (IC50) of 29.1 µM.

In the case of `CCOC(=O)c1cc(-c2ccc(OC)cc2)nn1C/C(=N/O)c1ccc(OC)cc1`, the values for the Activity result in the test on A549 [1] and with A549 [5] were “tde” and “Dose-dependent effect”, respectively. Also, the outcome in the test with A549 [2] and in the test with A549 [4] was Active. For the same compound, the result in the test on A549 [3] was inactive. Also, the IC50 in the test on A549 [5] is 36.5 µM.

In the case of `CCOC(=O)c1cc(-c2ccc(OC)cc2)nn1C/C(=N/O)c1ccc(Cl)cc1`, the results for the Activity entry in the test with A549 [1] and in the test with A549 [5] were “tde” and “Dose-dependent effect”, respectively. The outcome with A549 [2], in the test on A549 [6] and with A549 [4] was Active. Further, in the test on A549 [3], the outcome was inactive. It took 16.3 µM to reach half-maximal inhibition in the test with A549 [5] (IC50).

Turning to `CCOC(=O)c1cc(-c2ccc(OC)cc2)nn1C/C(=N/O)c1ccccc1`, in the test on A549 [1], the Activity result was “tde”. For the same compound, the outcome with A549 [6] was Active. Moreover, the outcome in the test on A549 [3] was inactive. Further, in the test on A549 [5], the Activity entry was “Dose-dependent effect” and the IC50 was determined as 42.7 µM.

On to `CCOC(=O)c1cc(-c2ccc(Cl)cc2)nn1C/C(=N/O)c1ccc(Cl)cc1`, for which the Activity entry in the test with A549 [1] is “tde”; with A549 [5] it was “Dose-dependent effect”. In addition, the inhibition at 10 µM in the test on A549 [7] was 58.6%. In addition, in the test on A549 [8], the inhibition at 20 µM came out at 51.9%. The result in the test with A549 [2], in the test with A549 [6] and with A549 [10] was Active. Besides, the inhibition at 40 µM with A549 [9] worked out at 10.3%. Besides, the result in the test on A549 [3] was inactive. In addition, the IC50 in the test on A549 [5] was found to be 14.6 µM.

Consider `CCOC(=O)c1cc(-c2ccccc2)nn1C/C(=N/O)c1ccccc1`, for which the Activity entry in the test with A549 [1] is “tde”. Besides, in the test on A549 [6], the result was Active. For the same compound, the outcome with A549 [3] was inactive. Moreover, in the test with A549 [5], the Activity entry was “Dose-dependent effect” and the IC50 amounted to 29.8 µM.

As for `CCOC(=O)c1cc(-c2ccccc2)nn1C/C(=N/O)c1ccc(Cl)cc1`, the values for the Activity result in the test on A549 [1] and with A549 [5] were “tde” and “Dose-dependent effect”, respectively. Besides, the outcome with A549 [2], with A549 [6] and in the test with A549 [10] was Active. Also, the result in the test on A549 [3] was inactive. In the test with A549 [5], this compound displayed an IC50 of 26.3 µM.

Take `CCOC(=O)c1cc(-c2ccc(Cl)cc2)nn1C/C(=N/O)c1ccccc1`: the Activity entry with A549 [1] was “tde”; in the test on A549 [5], “Dose-dependent effect”. Also, the outcome in the test with A549 [2], in the test on A549 [6] and with A549 [4] was Active. The result with A549 [3] was inactive. The same compound showed a 50% inhibitory concentration (IC50) in the test with A549 [5] of 31.4 µM.
